Source: patent US20210330611A1, “THERAPY FOR NEUROLOGICAL DISEASES/DISORDERS” (priority 2020, published 2021)
Where “and” joins values, the source holds several entries; their conditions need not be identical. Identical values can stand only once. Counter-ions that a name gives are not always drawn. Like-named read-outs stand apart in the source and are kept apart here.

What was measured:
[1] = test system: fibrin- and LPS-induced microglia activation; test: cells; format: cell-based, rat; conditions: for inhibition at 10 µM: Rattus norvegicus, Microglia
[2] = test system: LPS-induced microglia activation; test: Image-based assay of LPS-induced microglia activation (HTS and dose response); format: cell-based, rat
[3] = test system: fibrin-induced microglia activation; test: Image-based assay of fibrin-induced microglia activation (HTS and dose response); format: cell-based, rat; conditions: for inhibition at 10 µM / IC50: Rattus norvegicus, Microglia; for inhibition at 10 µM: read-out: Fibrin % inhibition
primary rat microglia [4] = test system: primary rat microglia
primary rat microglia [5] = test: Cell toxicity (dead cells, size <150 μm2) in coated fibrin (cFib) assay; conditions: primary microglia HTS, fibrin stimulation, cell size <150 μm2 as marker of toxicity;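 note: share of dead cells sized under 150 µm2 at 10 µM in fibrin-stimulated microglia HTS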
[6] = classification by fibrin and LPS inhibition in HTS
[7] = Rattus norvegicus, Microglia, 48 h; read-out: LPS % inhibition
[8] = primary microglia HTS, fibrin stimulation, cell size >800 μm2 as marker of activation
[9] = Rattus norvegicus, Microglia, 48 h, read-out: LPS % inhibition

Row | SMILES | Quadrant (FIG. 5b) [1, 6] | LPS % cell toxicity (primary rat microglia [4]; rat) [%] | Quadrant (FIG. 5b) [1] | inhibition at 10 µM [2, 9] [%] | inhibition at 10 µM [3] [%] | other results
1 | CC(=O)Oc1cc2c(s1)CCN(C(C(=O)C1CC1)c1ccccc1F)C2 (stereo not drawn) [Prasugrel] | Q4 | 1 | – | – | – | inhibition at 10 µM [2, 7]: 22%; inhibition at 10 µM [3, 8]: 15%
2 | CC(C)c1cccc(C(C)C)c1O [Propofol] | – | 0 | Q4 | 11 | -18 | –
3 | CC(C)NCC(O)COc1cccc2ccccc12 (stereo not drawn) [Propranolol] | – | 0 | Q4 | 2 | – | Fibrin % inhibition [3]: −30%
4 | OCCOCCN1CCN(C2=Nc3ccccc3Sc3ccccc32)CC1 [Quetiapine] | – | 0 | Q4 | 13 | -2 | –
5 | CCC1NC(=O)c2cc(S(N)(=O)=O)c(Cl)cc2N1 (stereo not drawn) [Quinethazone] | Q4 | 1 | – | – | – | inhibition at 10 µM [2, 7]: 17%; inhibition at 10 µM [3, 8]: 15%
6 | CNCC(O)c1ccc(O)c(O)c1 (stereo not drawn) [Racepinephrine] | – | 0 | Q4 | 29 | 27 | –
7 | CC(Cc1ccccc1)(NC(=O)CN)c1ccccc1 (stereo not drawn) [Remacemide Hydrochloride] | – | 0 | Q4 | 13 | -21 | –
8 | NC(=O)c1ncn([C@@H]2O[C@H](CO)[C@@H](O)[C@H]2O)n1 [Ribavirin, reference compound] | – | 3 | Q2 | 107 | 102 | inhibition at 10 µM ([1]; read-out: Cherry-picked Hit (Suppl. Table 7)): > 50%; inhibition at 10 µM ([1]; read-out: Hit): > 50%; IC50 ([2]; Rattus norvegicus, Microglia, 48 h, read-out: LPS IC50): 2 µM; IC50 ([2]; Rattus norvegicus, Microglia, read-out: LPS IC50 (uM)): 2 µM; IC50 ([2]; Rattus norvegicus, Microglia, read-out: LPS IC50 (uM) (Suppl. Table 7)): 2 µM; IC50 ([3]; 48 h, read-out: Fibrin IC50): 1 µM; IC50 ([3]; read-out: Fibrin IC50 (uM)): 1 µM; IC50 ([3]; read-out: Fibrin IC50 (uM) (Suppl. Table 7)): 1 µM
9 | CCCN(CCC)CCc1cccc2c1CC(=O)N2 [Ropinirole] | – | 0 | Q4 | 15 | -26 | –
10 | C#CCN(C)[C@H](C)Cc1ccccc1 [Selegiline] | Q4 | 0 | – | – | – | Fibrin % cell toxicity (primary rat microglia [5]): 0% and 1%
11 | CCCc1nn(C)c2c(=O)[nH]c(-c3cc(S(=O)(=O)N4CCN(C)CC4)ccc3OCC)nc12 [Sildenafil, Sildenafil Citrate] | Q4 | – | – | – | – | LPS % inhibition [2]: 20%; Fibrin % inhibition [3, 8]: 22%; LPS % cell toxicity (primary rat microglia [4]): 0%
12 | O=C(O[C@H]1CN2CCC1CC2)N1CCc2ccccc2[C@@H]1c1ccccc1 [Solifenacin Succinate] | Q4 | 0 | – | – | – | inhibition at 10 µM [2, 7]: -4%; inhibition at 10 µM [3, 8]: -2%
13 | OC[C@@H](O)[C@@H](O)[C@H](O)[C@@H](O)CO [Sorbitol] | Q4 | 0 | – | – | – | Fibrin % cell toxicity (primary rat microglia [5]): 1% and 0%
14 | C1CCN2C[C@@H]3C[C@@H](CN4CCCC[C@@H]34)[C@H]2C1 [Sparteine Sulfate] | Q4 | 0 | – | – | – | inhibition at 10 µM [2, 7]: 20%; inhibition at 10 µM [3, 8]: 7%
15 | CSc1ccc2c(c1)N(CCC1CCCCN1C)c1ccccc1S2 (stereo not drawn) [Thioridazine hydrochloride, reference compound] | – | 73 | Q2 | 118 | 116 | Activity [1]: fib/LPS
16 | Cc1ccc(O)c([C@H](CCN(C(C)C)C(C)C)c2ccccc2)c1 [Tolterodine] | – | 0 | Q4 | – | -36 | inhibition at 10 µM ([2]; Rattus norvegicus, Microglia, read-out: LPS % inhibition): 15%
17 | C[C@@H](c1ncncc1F)[C@](O)(Cn1cncn1)c1ccc(F)cc1F [Voriconazole] | – | 0 | – | – | – | Quadrant (FIG. 5b) ([1]; HTS of 1907 compounds, quadrant by fibrin and LPS inhibition): Q4; inhibition at 10 µM ([2]; Rattus norvegicus, Microglia, primary microglia HTS, 10 μM, LPS-stimulated, cell size >800 μm^2 as marker of activation; read-out: LPS % inhibition): 5%; inhibition at 10 µM ([3]; primary microglia HTS, 10 μM, fibrin-stimulated, cell size >800 μm^2 as marker of activation): -42%
